Measurements taken from ChEMBL document CHEMBL1201862, “PubChem BioAssay data set” (2004).
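The compound was tested at five concentrations on cells cultured in 96-well plates, with a 48-hour exposure period. The concentration for 50% growth inhibition is given as GI50.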 Activity calls are given as the source filed them. Rule as the data show it: active = GI50 up to about 1.1 µM and inactive = higher.

Experiments:
Assay in all cases: NCI-60 cell line screen, 48 h
SK-MEL-2 = system: SK-MEL-2
SR = system: SR
SK-MEL-28 = system: SK-MEL-28
IGROV-1 = system: IGROV-1
HCT-116 = system: HCT-116
SF-539 = system: SF-539
COLO 205 = system: COLO 205
BT-549 = system: BT-549
SK-MEL-5 = system: SK-MEL-5
SN12C = system: SN12C
SF-268 = system: SF-268
PC-3 = system: PC-3
NCI/ADR-RES = system: NCI/ADR-RES
HCC 2998 = system: HCC 2998
SK-OV-3 = system: SK-OV-3
OVCAR-3 = system: OVCAR-3
CCRF-CEM = system: CCRF-CEM
HOP-62 = system: HOP-62
CAKI-1 = system: CAKI-1
NCI-H23 = system: NCI-H23

| SMILES | GI50 (SK-MEL-2) | GI50 (SR) | GI50 (SK-MEL-28) | GI50 (IGROV-1) | GI50 (HCT-116) | GI50 (SF-539) | GI50 (COLO 205) | GI50 (BT-549) | GI50 (SK-MEL-5) | GI50 (SN12C) | GI50 (SF-268) | GI50 (PC-3) | GI50 (NCI/ADR-RES) | GI50 (HCC 2998) | GI50 (SK-OV-3) | GI50 (OVCAR-3) | GI50 (CCRF-CEM) | GI50 (HOP-62) | GI50 (CAKI-1) | GI50 (NCI-H23) |
| --- | --- | --- | --- | --- | --- | --- | --- | --- | --- | --- | --- | --- | --- | --- | --- | --- | --- | --- | --- | --- |
| CN1C(=O)c2ccccc2C(O)(c2ccccc2)C1(O)c1ccccc1 (centres undefined) | > 100 µM (inactive) | 43 µM (inactive) | > 100 µM (inactive) | 58.5 µM (inactive) | 95.3 µM (inactive) | > 100 µM (inactive) | > 100 µM (inactive) | 81.1 µM (inactive) | 74.6 µM (inactive) | > 100 µM (inactive) | 55.5 µM (inactive) | 52.6 µM (inactive) | > 100 µM (inactive) | 87.9 µM (inactive) | 52.4 µM (inactive) | > 100 µM (inactive) | > 100 µM (inactive) | > 100 µM (inactive) | 43.4 µM (inactive) | 81.8 µM (inactive) |
| COC(=O)Cc1c([C@H]2[C@H](CC(=O)OC)c3ccccc3N2S(=O)(=O)c2ccc(C)cc2)[nH]c2ccccc12 | > 100 µM (inactive) | 9.33 µM (inactive) | > 100 µM (inactive) | 3.13 µM (inactive) | > 100 µM (inactive) | > 100 µM (inactive) | > 100 µM (inactive) | > 100 µM (inactive) | > 100 µM (inactive) | > 100 µM (inactive) | > 100 µM (inactive) | > 100 µM (inactive) | > 100 µM (inactive) | > 100 µM (inactive) | > 100 µM (inactive) | > 100 µM (inactive) | 18.5 µM (inactive) | > 100 µM (inactive) | > 100 µM (inactive) | > 100 µM (inactive) |
| O=C1/C(=C/c2ccccc2)CN(C(=O)CCN2CCOCC2)C/C1=C\c1ccccc1 | 2.55 µM (inactive) | 1.06 µM (active) | 1.86 µM (inactive) | 6.04 µM (inactive) | 0.778 µM (active) | 2.06 µM (inactive) | 2.74 µM (inactive) | 2.14 µM (inactive) | 2.17 µM (inactive) | 2.18 µM (inactive) | 2.87 µM (inactive) | 2.75 µM (inactive) | 3.16 µM (inactive) | 1.87 µM (inactive) | 10.7 µM (inactive) | 3.91 µM (inactive) | 1.38 µM (inactive) | 8.45 µM (inactive) | 10.1 µM (inactive) | 2.55 µM (inactive) |
| N#Cc1nc(C#N)c(N)[nH]1 | > 100 µM (inactive) | > 100 µM (inactive) | > 100 µM (inactive) | > 100 µM (inactive) | > 100 µM (inactive) | > 100 µM (inactive) | > 100 µM (inactive) | > 100 µM (inactive) | > 100 µM (inactive) | > 100 µM (inactive) | > 100 µM (inactive) | > 100 µM (inactive) | > 100 µM (inactive) | > 100 µM (inactive) | > 100 µM (inactive) | > 100 µM (inactive) | > 100 µM (inactive) | > 100 µM (inactive) | > 100 µM (inactive) | > 100 µM (inactive) |
| O=C(NN1CCCCC1)c1cc2cc(CCl)ccc2oc1=O | 11.9 µM (inactive) | 21.2 µM (inactive) | 29.3 µM (inactive) | 19.4 µM (inactive) | 18.2 µM (inactive) | 27.4 µM (inactive) | 17.9 µM (inactive) | 19.3 µM (inactive) | 17.7 µM (inactive) | 18.4 µM (inactive) | 16.4 µM (inactive) | 14.8 µM (inactive) | 23.1 µM (inactive) | 13.9 µM (inactive) | 21.9 µM (inactive) | 20.4 µM (inactive) | 17.2 µM (inactive) | 19.4 µM (inactive) | 18.1 µM (inactive) | 16.5 µM (inactive) |
| CCN(CC)CCn1ccc(=O)c2cc3c(=O)ccn(CCN(CC)CC)c3c(C)c21 | 11.6 µM (inactive) | 1.26 µM (inactive) | 19.9 µM (inactive) | 7.28 µM (inactive) | 1.82 µM (inactive) | 11.2 µM (inactive) | 3.87 µM (inactive) | 14.5 µM (inactive) | 15.7 µM (inactive) | 5.65 µM (inactive) | 4.07 µM (inactive) | 4.79 µM (inactive) | 1.41 µM (inactive) | 1.44 µM (inactive) | 4.13 µM (inactive) | 8.55 µM (inactive) | 1.77 µM (inactive) | 7.38 µM (inactive) | 7.4 µM (inactive) | 6.75 µM (inactive) |
| COC(=O)C1=NN2c3ccccc3CN([C@@H](C)c3ccccc3)C(=O)[C@@H]2[C@H]1c1ccccc1 | > 100 µM (inactive) | 63 µM (inactive) | > 100 µM (inactive) | – | > 100 µM (inactive) | > 100 µM (inactive) | > 100 µM (inactive) | > 100 µM (inactive) | > 100 µM (inactive) | > 100 µM (inactive) | > 100 µM (inactive) | 21.3 µM (inactive) | 32.1 µM (inactive) | > 100 µM (inactive) | > 100 µM (inactive) | > 100 µM (inactive) | > 100 µM (inactive) | > 100 µM (inactive) | > 100 µM (inactive) | > 100 µM (inactive) |
| N=C(N)N/N=C/c1c(-c2ccc([N+](=O)[O-])cc2)nc2sccn12 | 1.76 µM (inactive) | 1.73 µM (inactive) | 1.94 µM (inactive) | 8.63 µM (inactive) | 1.63 µM (inactive) | 1.77 µM (inactive) | 0.676 µM (active) | 1.82 µM (inactive) | 3.23 µM (inactive) | 1.77 µM (inactive) | 1.85 µM (inactive) | 1.59 µM (inactive) | > 100 µM (inactive) | 1.43 µM (inactive) | 1.64 µM (inactive) | 1.37 µM (inactive) | 0.673 µM (active) | 1.67 µM (inactive) | 2.43 µM (inactive) | 1.71 µM (inactive) |
| CNC1C(O)C(NC)C2OC3(O)C(=O)CC(C)OC3OC2C1O (centres undefined) | > 100 µM (inactive) | > 100 µM (inactive) | > 100 µM (inactive) | > 100 µM (inactive) | > 100 µM (inactive) | > 100 µM (inactive) | > 100 µM (inactive) | > 100 µM (inactive) | > 100 µM (inactive) | > 100 µM (inactive) | > 100 µM (inactive) | > 100 µM (inactive) | > 100 µM (inactive) | > 100 µM (inactive) | > 100 µM (inactive) | > 100 µM (inactive) | > 100 µM (inactive) | > 100 µM (inactive) | > 100 µM (inactive) | > 100 µM (inactive) |
| Cc1ccc2c(c1)C(=O)/C(=C\c1ccccc1)CCS2(=O)=O | 18.6 µM (inactive) | 2.92 µM (inactive) | 18.5 µM (inactive) | 9.68 µM (inactive) | 6.43 µM (inactive) | 10.3 µM (inactive) | 17.4 µM (inactive) | 6.68 µM (inactive) | 11.6 µM (inactive) | 14.2 µM (inactive) | 15.1 µM (inactive) | 10.4 µM (inactive) | 7.23 µM (inactive) | 12.2 µM (inactive) | 15.9 µM (inactive) | 13.1 µM (inactive) | 1.07 µM (active) | 20.9 µM (inactive) | 17.2 µM (inactive) | 12.7 µM (inactive) |
| CC(=O)C1=C(C)N(c2ccccc2)C2(O)C3=C(C(=O)c4ccccc4C3=O)C(O)=CC12Cl (centres undefined) | 5.07 µM (inactive) | 2.42 µM (inactive) | 6.73 µM (inactive) | 2.71 µM (inactive) | 5.96 µM (inactive) | 4.09 µM (inactive) | 5.21 µM (inactive) | 8.11 µM (inactive) | 2.91 µM (inactive) | 4.46 µM (inactive) | 6.73 µM (inactive) | 7.28 µM (inactive) | 3.73 µM (inactive) | 4.63 µM (inactive) | 49.7 µM (inactive) | 4.2 µM (inactive) | 0.65 µM (active) | 17.2 µM (inactive) | 4.05 µM (inactive) | 6.55 µM (inactive) |
| CC1OC(OCC2OC(Oc3ccc(C4CC(=O)c5c(O)cc(O)cc5O4)cc3O)C(O)C(O)C2O)C(O)C(O)C1O (centres undefined) | > 100 µM (inactive) | > 100 µM (inactive) | > 100 µM (inactive) | > 100 µM (inactive) | > 100 µM (inactive) | > 100 µM (inactive) | > 100 µM (inactive) | > 100 µM (inactive) | > 100 µM (inactive) | > 100 µM (inactive) | > 100 µM (inactive) | > 100 µM (inactive) | > 100 µM (inactive) | > 100 µM (inactive) | > 100 µM (inactive) | > 100 µM (inactive) | > 100 µM (inactive) | > 100 µM (inactive) | > 100 µM (inactive) | > 100 µM (inactive) |
| CCCCCCCCCCCCCCCCP(=O)(O)OP(=O)(O)OCC1OC(n2cnc3c(N)ncnc32)C(O)C1O (centres undefined) | 42.5 µM (inactive) | 45.5 µM (inactive) | 35.7 µM (inactive) | 16.3 µM (inactive) | 21.5 µM (inactive) | 19.1 µM (inactive) | 32.7 µM (inactive) | 42.4 µM (inactive) | 29 µM (inactive) | 20.8 µM (inactive) | 30.3 µM (inactive) | 20.7 µM (inactive) | 31.1 µM (inactive) | 22.5 µM (inactive) | 28.6 µM (inactive) | 32.2 µM (inactive) | 29.6 µM (inactive) | 19.5 µM (inactive) | 28.7 µM (inactive) | 26.8 µM (inactive) |
| Cc1cccc2c1c(=O)c1c(O)cc3c(c1n2C)C=CC(C)(C)O3 | > 100 µM (inactive) | > 100 µM (inactive) | > 100 µM (inactive) | 62.7 µM (inactive) | > 100 µM (inactive) | > 100 µM (inactive) | 33.7 µM (inactive) | > 100 µM (inactive) | 75 µM (inactive) | > 100 µM (inactive) | > 100 µM (inactive) | > 100 µM (inactive) | > 100 µM (inactive) | > 100 µM (inactive) | > 100 µM (inactive) | > 100 µM (inactive) | > 100 µM (inactive) | > 100 µM (inactive) | > 100 µM (inactive) | > 100 µM (inactive) |
